{"source": "paper PMC9503459", "about": "“Antifungal Activity, Structural Stability, and Immunomodulatory Effects on Human Immune Cells of Defensin from the Lentil Lens culinaris” (Membranes, 2022)", "tested_on": "clinical isolate of Candida albicans (v47a3)", "experiment": "Antifungal microdilution assay, C. albicans", "format": "cell-based", "details": "24 h; for inhibition of the growth: C. albicans", "protocol": "The clinical isolates of Candida albicans (v47a3), C. krusei (225/2) and C. glabrata (252/2) were collected from patients with human immunodeficiency virus (HIV) infection and provided by G.N. Gabrichevsky Research Institute for Epidemiology and Microbiology (Moscow, Russia). Strains stocks were kept at −70 ℃ in 10% nonfat milk with 10% glycerol.\nAntifungal susceptibility tests were performed by the microdilution method using 96-well microplates. Yeast cells in stock were inoculated onto modified YPD (yeast extract 5 g/L, peptone 10 g/L, glucose 10 g/L) agar plates, and incubated for 24 h at 37 ℃. After replating, cells were cultured in modified YPD broth at 37 ℃ to optical density 1.0 at 540 nm. Further, yeast cells in modified YPD broth at concentration of 5 × 10^4 cells/mL were mixed with equal volumes of serial two-fold dilutions of the peptide in water which started at the highest peptide concentration of 200 µM. Final peptide concentrations in the wells were 100, 50, 25, 12.5, 6.25, 3.125, and 1.56 μM. Controls without defensin were also tested. Plates were incubated at 30 ℃ during 24 h. Yeast growth was estimated using inverted microscope as well as by measuring the optical density at 540 nm. Percentage of growth inhibition was defined as: growth inhibition (%) = ((Acontrol − Asample)/Acontrol) × 100%. All of the experiments were performed twice in triplicate. The t-test was performed to study the statistical difference (p-value) between the means of controls and samples with different peptide concentrations. The experiment with lentil Lens culinaris lipid transfer protein Lc-LTP2 was carried out for comparison.", "note": "No end group written: not given here.", "data": [{"substance": "Lc-def: defensin from lentil Lens culinaris seeds (UniProt:B3F051), recombinant, overexpressed in Escherichia coli (KTCENLSDSFKGPCIPDGNCNKHCKEKEHLLSGRCRDDFRCWCTRNC; disulfide (positions not given here); ends not checked; also: disulfide bonds present, pairing not given here; UniProt B3F051 28-74, looked up)", "values": [{"measurement": "IC50", "setting": "C. albicans clinical isolate, microdilution, modified YPD, 30 °C, OD540, twice in triplicate, read-out: concentration causing 50% growth inhibition", "value": "25 to 50", "unit": "µM"}, {"measurement": "inhibition of the growth", "setting": "50 μM peptide", "value": "approximately 80%"}, {"measurement": "inhibition of the growth", "setting": "100 μM peptide", "value": "< 100", "unit": "%"}]}]}
